How the values were obtained:
[1] = comparison of water solubility; type: physicochemical; conditions: against the requirements of clinical use
[2] = comparison of stability (appearance, impurities) during storage; type: physicochemical
Experimental: Experimental Groups 1 to 6: the 13C-methacetin granular formulations prepared in Examples 1 to 6 of the present disclosure
Control Group 1: a powdered formulation. The respective adjuvant materials and the raw drug were weighed at a prescribed ratio and mixed uniformly in a mixer for 3 hours, whereby a powdered formulation or a powder was prepared.
Control Group 2: another granular formulation.
13C-methacetin has a low solubility in water, has a slow dissolution rate, should be stirred for a long time when being dissolved in 100 ml of water in an amount of 50 mg, and thus is not convenient in oral administration. […] The powders are agglomerated during storage. The addition of the adjuvant materials helps to improve the stability of the product, and the degraded impurities are less than those of the raw drug powder. […] By comparison, the developed granular formulation has better stability and water solubility, is stable in quality, and has high value in use.

water solubility (in words) [1]: low
Stability: Appearance (agglomeration) [2]: likely to agglomerate
Structure (SMILES): CC(=O)Nc1ccc(O[13CH3])cc1 [13C-methacetin, N-acetyl-p-anisidine (methoxy-13C)]
